Reference: US9029337B2, “Modulation of factor 7 expression” (Isis Pharmaceuticals, Inc., priority 2007, dated 2015)
Strand notation (5' to 3'): a small letter for the sugar, then the base; units joined by * are phosphorothioate-linked, units joined directly phosphodiester-linked; [ ] holds rarer units or linkages, { } end groups; capitals alone tell only the bases. e = 2'-O-(2-methoxyethyl) (MOE); [5mC] = 5-methylcytosine; d = 2'-deoxy (DNA)

System: human Factor 7 mRNA
Experiment: Antisense inhibition of human Factor 7 with short (14-mer) oligonucleotides in HepB3 cells, electroporation 1,000 nM
Type: cell-based
Settings: electroporation, 1,000 nM antisense oligonucleotide, approximately 24 hours, Factor 7 mRNA relative to untreated control cells
Description: Short antisense oligonucleotides (shortmers) were designed to target a Factor 7 nucleic acid. The shortmers in Table 17 were designed as 2-10-2 MOE gapmers. The gapmers are 14 nucleotides in length, wherein the central gap segment is comprised of 10 2′-deoxynucleotides and is flanked on both sides (in the 5′ and 3′ directions) by wings comprising 2 nucleotides each. Each nucleotide in the 5′ wing segment and each nucleotide in the 3′ wing segment has a 2′-MOE modification. The internucleoside linkages throughout each gapmer are phosphorothioate (P═S) linkages. All cytidine residues throughout each gapmer are 5-methylcytidines.
Shortmers were evaluated for their ability to reduce human Factor 7 mRNA in HepB3 cells and compared with one 5-10-5 chimeric oligonucleotide from Table 16, ISIS 407939. HepB3 cells at a density of 20,000 cells per well in a 96-well plate were transfected using electroporation with 1,000 nM of antisense oligonucleotide. After a treatment period of approximately 24 hours, RNA was isolated from the cells and Factor 7 mRNA levels were measured by real-time RT-PCR, as described herein. Factor 7 mRNA levels were adjusted according to total RNA content as measured by RIBOGREEN®. Results are presented in Table 17 as percent inhibition of Factor 7 mRNA, relative to untreated control cells. ISIS 407939 is the first oligonucleotide in Table 17 to which the shortmers were compared, and is marked by an asterisk (*).

Row | Substance | % Inhibition
1 | 435489 (antisense e[5mC]*eT*dG*dG*dT*dG*dT*dA*d[5mC]*dA*d[5mC]*d[5mC]*e[5mC]*e[5mC]) [compound 435489] | 72%
2 | 435775 (antisense eT*e[5mC]*dT*dG*dG*dA*dA*dG*dG*dA*dA*d[5mC]*eA*eG) [compound 435775] | 25%
3 | 435758 (antisense e[5mC]*e[5mC]*d[5mC]*dT*dG*dA*dG*d[5mC]*dT*dG*dG*dG*e[5mC]*eA) [compound 435758] | 4%
4 | 435756 (antisense eT*eG*d[5mC]*d[5mC]*d[5mC]*dA*dG*dG*dA*d[5mC]*dG*dG*e[5mC]*e[5mC]) [compound 435756] | 20%
5 | 435739 (antisense e[5mC]*eA*dT*d[5mC]*dT*d[5mC]*dA*dG*dA*dG*dG*dA*eT*eG) [compound 435739] | 5%
6 | 435815 (antisense e[5mC]*eT*d[5mC]*dT*dT*d[5mC]*d[5mC]*dG*dA*dG*d[5mC]*dA*eG*e[5mC]) [compound 435815] | 59%
7 | 435683 (antisense eA*eT*dG*dT*d[5mC]*dG*dT*dG*dG*dT*dT*dG*eG*eT) [compound 435683] | 3%
8 | 435691 (antisense e[5mC]*eA*dG*d[5mC]*d[5mC]*dG*d[5mC]*dT*dG*dA*d[5mC]*d[5mC]*eA*eA) [compound 435691] | 25%
9 | 435757 (antisense eT*eG*d[5mC]*d[5mC]*dT*dG*dA*dG*dT*dG*d[5mC]*d[5mC]*e[5mC]*e[5mC]) [compound 435757] | 51%
10 | 435817 (antisense e[5mC]*eT*dG*dA*dG*d[5mC]*dT*dT*dG*dG*d[5mC]*dA*e[5mC]*e[5mC]) [compound 435817] | 39%
11 | 435480 (antisense eG*eG*dT*d[5mC]*dA*dT*d[5mC]*dA*dG*d[5mC]*d[5mC]*dG*eG*eG) [compound 435480] | 53%
12 | 435816 (antisense eT*e[5mC]*d[5mC]*dA*dA*dA*dG*dG*dA*d[5mC]*dA*dA*eG*eG) [compound 435816] | 4%
13 | 435734 (antisense eA*eT*dG*d[5mC]*dT*dT*d[5mC]*dT*dG*dA*dA*dT*eT*eG) [compound 435734] | 16%
14 | 435682 (antisense eG*eG*dA*dT*dG*dA*dT*dG*dA*d[5mC]*d[5mC]*dT*eG*e[5mC]) [compound 435682] | 36%
15 | 435847 (antisense eT*eG*dG*dT*dG*dT*dG*d[5mC]*dA*d[5mC]*dA*d[5mC]*eA*eT) [compound 435847] | 36%
16 | 435667 (antisense eA*eA*dT*dT*d[5mC]*dG*dG*d[5mC]*d[5mC]*dT*dT*dG*eG*eG) [compound 435667] | 16%
17 | 435784 (antisense e[5mC]*e[5mC]*dT*dA*dA*dG*dT*dG*dT*dG*d[5mC]*dT*eT*eT) [compound 435784] | 17%
18 | 435822 (antisense e[5mC]*e[5mC]*dA*dG*dG*dA*dG*d[5mC]*d[5mC]*dT*dT*dT*eA*e[5mC]) [compound 435822] | 37%
19 | 435808 (antisense e[5mC]*eT*d[5mC]*dT*dG*dG*dA*d[5mC]*dA*d[5mC]*d[5mC]*dG*eG*eG) [compound 435808] | 66%
20 | 435491 (antisense e[5mC]*e[5mC]*d[5mC]*dT*dG*dG*dT*dG*dT*dA*d[5mC]*dA*e[5mC]*e[5mC]) [compound 435491] | 61%
21 | 435698 (antisense e[5mC]*e[5mC]*dT*dT*dG*d[5mC]*dA*dG*dG*dA*dG*dT*e[5mC]*e[5mC]) [compound 435698] | 61%
22 | 435780 (antisense eG*eG*dA*dG*dG*dG*dA*d[5mC]*dG*dA*d[5mC]*d[5mC]*eT*eT) [compound 435780] | 28%
23 | 435783 (antisense eA*eA*dA*d[5mC]*d[5mC]*dG*dG*d[5mC]*dA*dT*dG*d[5mC]*eG*e[5mC]) [compound 435783] | 49%
24 | 435652 (antisense e[5mC]*eT*dG*dG*dT*d[5mC]*dA*dT*d[5mC]*d[5mC]*dT*dT*eG*eT) [compound 435652] | 48%
25 | 435851 (antisense eA*e[5mC]*dA*dG*dG*d[5mC]*d[5mC]*dA*dG*dG*d[5mC]*dT*eG*eG) [compound 435851] | 0%
26 | 435781 (antisense eA*e[5mC]*d[5mC]*dA*d[5mC]*dG*d[5mC]*dG*dG*dT*dG*dG*eT*eG) [compound 435781] | 0%
27 | 435843 (antisense eG*e[5mC]*dT*dG*dG*dA*dG*d[5mC]*dT*dG*dA*dG*e[5mC]*e[5mC]) [compound 435843] | 0%

Row | Substance | % Inhibition
28 | 435660 (antisense e[5mC]*e[5mC]*dG*dT*d[5mC]*dT*dG*d[5mC]*d[5mC]*dA*dG*d[5mC]*eA*eG) [compound 435660] | 58%
29 | 435644 (antisense eT*eG*dG*dT*d[5mC]*d[5mC]*dT*dT*dG*d[5mC]*dA*dG*eG*eA) [compound 435644] | 30%
30 | 435724 (antisense e[5mC]*eT*dG*dA*dG*dG*d[5mC]*d[5mC]*dA*dG*d[5mC]*dA*eG*eA) [compound 435724] | 52%
31 | 435777 (antisense e[5mC]*eT*dG*dA*dG*dG*dA*dT*dG*d[5mC]*dA*dG*eG*e[5mC]) [compound 435777] | 53%
32 | 435827 (antisense eT*e[5mC]*dA*dG*dA*dA*dA*dG*dA*dT*dG*d[5mC]*eA*eG) [compound 435827] | 5%
33 | 435719 (antisense e[5mC]*eA*dG*d[5mC]*d[5mC]*dT*dT*dG*dG*d[5mC]*dT*dT*eT*e[5mC]) [compound 435719] | 50%
34 | 435714 (antisense eA*e[5mC]*dT*d[5mC]*dG*dA*dT*dG*dT*dA*d[5mC]*dT*eG*eG) [compound 435714] | 3%
35 | 435802 (antisense eG*eT*d[5mC]*dA*d[5mC]*d[5mC]*dT*dA*dG*dA*d[5mC]*d[5mC]*eA*eA) [compound 435802] | 61%
36 | 435845 (antisense eG*e[5mC]*dT*d[5mC]*dA*dT*dG*dG*d[5mC]*dA*dG*dA*e[5mC]*eA) [compound 435845] | 21%
37 | 435850 (antisense e[5mC]*eT*dT*dG*dG*d[5mC]*d[5mC]*dA*dG*dT*dG*dT*eG*eG) [compound 435850] | 15%
38 | 435725 (antisense eG*e[5mC]*dA*dG*d[5mC]*d[5mC]*dT*dG*dA*dG*dG*d[5mC]*e[5mC]*eA) [compound 435725] | 79%
39 | 435487 (antisense eA*eG*dT*d[5mC]*d[5mC]*dT*dG*dG*dG*dT*d[5mC]*dA*eT*e[5mC]) [compound 435487] | 36%
40 | 435830 (antisense eT*eG*dA*dT*dT*dT*dT*dG*d[5mC]*dA*dA*dA*eG*eA) [compound 435830] | 0%
41 | 435793 (antisense eT*eG*d[5mC]*dA*dG*dT*dA*dG*d[5mC]*dA*dG*dA*eT*eG) [compound 435793] | 27%
42 | 435646 (antisense eT*eA*dG*dG*dA*d[5mC]*dT*dG*dG*dA*dG*d[5mC]*eT*eG) [compound 435646] | 13%
43 | 435673 (antisense eA*eG*dA*d[5mC]*d[5mC]*dA*d[5mC]*d[5mC]*d[5mC]*dA*dG*dA*eT*eG) [compound 435673] | 34%
44 | 435678 (antisense eA*eG*dG*dT*d[5mC]*dG*dT*dG*d[5mC]*dT*d[5mC]*dG*e[5mC]*e[5mC]) [compound 435678] | 67%
45 | 435670 (antisense e[5mC]*eA*dA*d[5mC]*dA*dG*dG*dA*d[5mC]*d[5mC]*dT*dG*e[5mC]*e[5mC]) [compound 435670] | 47%
46 | 435635 (antisense e[5mC]*eA*dT*dG*dA*dT*dG*dA*dA*dA*dT*d[5mC]*eT*e[5mC]) [compound 435635] | 0%
47 | 435680 (antisense eG*eT*dG*d[5mC]*dT*d[5mC]*dG*d[5mC]*dT*dG*dA*dG*eG*eT) [compound 435680] | 52%
48 | 435801 (antisense e[5mC]*eG*dG*dT*dT*dG*dG*d[5mC]*d[5mC]*dA*dG*dG*e[5mC]*e[5mC]) [compound 435801] | 38%
49 | 435745 (antisense eG*eG*dG*dA*dG*d[5mC]*dT*dA*d[5mC]*dA*dG*d[5mC]*e[5mC]*eT) [compound 435745] | 0%
50 | 435718 (antisense eG*e[5mC]*dT*d[5mC]*dG*d[5mC]*dA*dG*dG*dA*dG*dG*eA*e[5mC]) [compound 435718] | 26%
51 | 435779 (antisense eT*eG*dA*dG*d[5mC]*dG*d[5mC]*dG*dG*dA*dA*dG*eA*eA) [compound 435779] | 50%
52 | 435776 (antisense eG*eG*dG*dA*d[5mC]*dA*d[5mC]*dT*d[5mC]*dA*d[5mC]*dA*e[5mC]*eT) [compound 435776] | 51%
53 | 435696 (antisense e[5mC]*eA*dG*dA*dA*d[5mC]*dA*dT*dG*dT*dA*d[5mC]*eT*e[5mC]) [compound 435696] | 10%
54 | 435744 (antisense e[5mC]*eT*dA*d[5mC]*dA*dG*d[5mC]*d[5mC]*dT*d[5mC]*dA*dA*eA*e[5mC]) [compound 435744] | 19%
